Legend:
[1] = tested on: complementary RNA; assay: Thermodynamics of duplex formation with RNA; type: binding
Description: (§1) Thermodynamics parameters for hybridization can be extracted from thermal stability measurements when these are performed at varying concentrations of the complexes, or from the shape of the thermal denaturation curves. Both methods were used to determine ΔH°, ΔS° and ΔG° for formation of the PNA/RNA, DNA/RNA, PNA/DNA and DNA/DNA duplexes (Table III). It is remarkable that the decrease in entropy is almost identical for the formation of DNA/DNA and PNA/DNA duplexes and that both reactions are strongly enthalpy driven.

[2] = tested on: RNA target 5′-TAGTTGTGACGTACA-3; assay: Equilibrium and rate constants for duplexes with RNA (gel-shift); type: binding; details: [Na+] 0.1 M, 37 ° C.; 100 mM NaCl, 10 mM phosphate, 1 mM EDTA, pH 7.0; gel-shift with 32P-labeled RNA
[3] = tested on: complementary DNA; assay: Thermodynamics of duplex formation with DNA; type: binding
Description: as §1

[4] = tested on: complementary deoxyoligonucleotide; assay: Melting temperature of complexes with complementary DNA; type: binding; details: 100 mM NaCl, 10 mM Na-phosphate, 0.1 mM EDTA, pH 7; 4 μM of each strand
Description: (§2) The thermal stability measured as the melting temperature, Tm, of complexes between the pentadecamer, H-TGTACGTCACAACTA-NH2 (SEQ ID NO:10) and the complementary deoxyoligonucleotide 3′-ACATGCAGTGTTGAT (SEQ ID NO:47) (termed anti-parallel orientation: amino terminal of the PNA complementary to the 3′-end of the oligonucleotide) was 69.5° C. (see Table II), whereas the Tm of the corresponding PNA-DNA complex in parallel orientation was 56.1° C. The Tm for the PNA-RNA complexes was 72.3 and 51.2° C., respectively (see Table II). The orientation preference was further settled by using two decamer PNAs, and hybridizing these to complementary oligonucleotides in both orientations. The anti-parallel orientation was preferred in all cases (see Table II). Furthermore, it is noteworthy that virtually identical Tms were obtained regardless of which strand is the PNA and which is the DNA (see Table II, 2nd & 3rd row).

[5] = tested on: complementary RNA; assay: Melting temperature of complexes with complementary RNA; type: binding; details: 100 mM NaCl, 10 mM Na-phosphate, 0.1 mM EDTA, pH 7; 4 μM of each strand
Description: as §2

[6] = tested on: pT9CT9C plasmid linearized by CfrlOI; assay: Site-specific S1 nuclease digestion of plasmid with two PNA sites complexed with PNA; type: biochemical; details: 30 units S1 nuclease; target sites are for T5CT4
Text: was cloned into the Sal1 site of the pUC19 plasmid. This plasmid, which contained two binding sites for PNA H-T5CT4-LysNH2 (SEQ ID NO:6) separated by six base pairs, was designated pT9CT9C. Strand displacement in the two T5CT4 sites led to opening of the entire region, including the sequence GTCGAC/GACGAC, providing a substrate for the S1 nuclease in both strands. As control, a pT9C-5 plasmid was used, which carried only one T5CT4 (SEQ ID NO:6) insert cloned into the SalI site of the pUC19 plasmid.
cloned in the Sal1 site of the pUC19 polylinker. The pT9C-5 plasmid carried the single insert A5GA4/CT5 (SEQ ID NO:4) cloned in the same site. The PNA-DNA complexes were prepared as described in Example 2 with the only difference being the duration of the incubation was 2 hours. Digestion by 30 units of the S1 nuclease was performed in the same buffer as described in Example 2 with two exceptions, lanes 2 and 4. In lane 2, 15 units of the enzyme were used, whereas in lane 4 200 mM NaCl and 1 mM of ZnSO4 were added to the buffer. Lane 1: the reference band obtained by digestion with the BamHI restriction enzyme of the pUC 19 plasmid linearized by the CfrlOI restriction enzyme. Lanes 2-4 site-specific digestion by the S1 nuclease of the linearized pT9C plasmid complexed with PNA H-T5CT4-LysNH2 (SEQ ID NO:6). Lanes 5-7: various controls. Lane 8: the same experiment as in lane 3, but using PNA T10 (SEQ ID NO:2) instead of T4CT5 (SEQ ID NO:8). Lane 9: the same experiment as in lane 3, but using PNA T2CT2CT4 (SEQ ID NO:1) instead of T4CT5 (SEQ ID NO:8). Lane 10: the same experiment as in lane 3, but using the pT9C-5 plasmid instead of the pT9C. In the header PNA T5CT4 (SEQ ID NO:6) is labelled as 1, T10 (SEQ ID NO:2) as 2 and T2CT2CT4 (SEQ ID NO:1) as 3.
The bands observed by gel electrophoresis have the same position and width as the band created by the BamHI restriction enzyme. […] Moreover, under the much milder S1 nuclease treatment necessary to generate the data for the pT9CT9C, the yield of double-stranded breaks in the pT9C-5 plasmid was extremely low (lane 10).

[7] = tested on: 264 bp EcorI/PvuII fragment of pT8C2A8G2; assay: KMnO4 and DMS probing of PNA binding to double-stranded DNA; details: pH 7.5, 5 μM PNA, compared to pH 6.5 and 5.5
Description: Probing was effected in 100μ buffer (S1: 100 mM NaCl, 1 mM ZnSO4, 50 mM NaAc, pH 4.5; KMnO4/dimethyl sulphate (DMS): 10 mM Na-cacodylate, 1 mM EDTA, pH 7.0 or as other wise noted) containing about 200 cps ^32P-labeled DNA fragment, 0.5 μg calf thymus DNA and the desired amount of PNA. Following a preincubation for 60 min at 37° C., the probing reagent was added and the incubation was continued at room temperature. The reactions were terminated by the addition of a stop-buffer. The DNA was precipitated by addition of 200 μL. 2% KAc in 96% EtOH and was analyzed by electrophoresis in 10% polyacrylamide sequencing gels. Radioactive DNA bands were visualized by autoradiography using amplifying screens and Agfa curix RPA X-ray films exposed at −70° C.
Probing conditions were: S1: 0.5 U/μl, 5 min. stopped with 3 μl 1 M EDTA; KMnO4: 1 mM, 15 sec. stopped with 50 μl 1M […], 1.5 M NaAc, pH 7.0; DMS: 1% DMS, 15 sec., stopped as for KMnO4 probing. Samples probed with DMS or KMnO4 were treated with piperidine (0.5 M, 90° C., 20 min.) prior to gel analysis.
For this example the 264 bp EcorI/PvuII fragment of pT8C2A8G2 was used that was 3′-^32P-end-labeled at the EcorI sit. Probing was effected as per the protocols of Example 12. The results are shown in FIG. 12 where in lanes 1 & 9 are controls without PNA. Lanes 1-7 are KMnO4 probing while lanes 9-15 are DMS probing. […]

[8] = tested on: A4GA2GA2 target (pA8G2KS/T3, pT8C2KS/T7 RNA polymerase); assay: Transcription elongation arrest using T3 or T7 RNA polymerase, mixed A/G PNA targets; type: biochemical; details: compared to Example 22
Description: The complex between the desired PNA and the desired DNA (100 ng) cleaved with the desired restriction enzyme was formed by incubation in 14 μL 10 mM Tris-HCl, 1 mM EDTA, (pH 7.4) buffer for 60 min at 37° C. Subsequently 4 μL 5× concentrated polymerase buffer (0.2 M Tris-HCl, pH 8.0, 125 mM NaCl, 40 mM MgCl2 10 mM spermidine) was added together with 15 U of RNA polymerase and ATP (10 μM), CTP (10 mM), UTP (1 mM) and ^32P-UTP (0.1 μCi). The incubation was continued for 10 min. Following ethanol precipitation, the RNA was analyzed by electrophoresis in polyacrylamide sequencing gels, and radialabeled RNA bands were visualized by autoradiography (using Agfa Curix RPI X-ray films and intensifying screens). Quantitation was performed by densitometric scanning using a Molecular Dynamics laser scanner and the ImageQuant™ software.
Samples identical to those used for Example 20 were analyzed by electrophoresis in a polyacrylamide sequencing gel. The results are shown in FIG. 23 where, Lanes 1-4: pA10KS/T3 RNA polymerase; lanes 5-8: pT10KS/T7 RNA polymerase; lanes 9-12: pA8G2KS/T3 RNA polymerase lanes 13-16: pT8C2KST7 RNA polymerase. The plasmid used in the samples of lanes 1-3 was cleaved with Xbal, that in lanes 6-8 with Pst1, that in lanes 9-11 with BamH1 and that in lanes 14-16 with HindIII. Lanes 1, 8, 9 & 16 are controls without PNA. […]

[9] = tested on: 5′d(AAAAGGAGAG); assay: Melting temperature of complex with decamer; type: binding; details: pH 7
Description: (§3) The dimer prepared in Example 53 was incorporated into PNA H-TT(detT-idaT)CCTCTC-LysNH2 (SEQ ID NO:53) generally in accordance with Example 1. The melting temperatures, Tm, of complexes between this PNA and decamers 5′d(AAAAGGAGAG) (SEQ ID NO:54) and 5′d(GAGAGGAAAA) (SEQ ID NO:55) were 55° C. and 43.5° C., respectively, at pH 7. By comparison, the Tm of complexes between PNA H-TTTCCTCTC-LysNH2 (SEQ ID NO:56), prepared generally in accordance with Example 1, and these decamers was 58.5° C. and 40.5° C., respectively, at pH 7.

[10] = tested on: 5′d(GAGAGGAAAA); assay: Melting temperature of complex with decamer; type: binding; details: pH 7
Description: as §3

[11] = 8 μM, average of the two methods
[12] = 8 μM, fit to modified two state model
[13] = 8 μM, linear plots of 1/TM versus log (concentration)
[14] = fit to modified two state model
[15] = fit to modified two state model, 100 mM NaCl, 10 mM Na-phosphate, 0.1 mM EDTA, pH 7.0
[16] = linear plots of 1/TM versus log (concentration)

DNA TGTACGTCACAACTA: DNA oligonucleotide 5′-TGTACGTCACAACTA-3′ as first strand of reference duplexes (DNA, backbone and methylation of C not given here) [reference compound]
TM (average of the two methods) [1, 11]: 50.0 °C | TM (melting curve fit) [1, 12]: 49.8 °C | TM (1/TM versus log concentration) [1, 13]: 50.1 °C | ΔG°37 (average of the two methods) ([1]; average of the two methods): -12.6 kcal/mol | ΔH° (average of the two methods) ([1]; average of the two methods): -111.5 kcal/mol | ΔS° (average of the two methods) ([1]; average of the two methods): −318.9 eu | ΔG°3 (melting curve fit) [1, 14]: −11.8 | ΔS° (melting curve fit) [1, 14]: −264.9 eu | ΔH° (melting curve fit) [1, 15]: -94.0 kcal/mol | ΔG°37 (1/TM versus log concentration) [1, 16]: −13.3 kcal/mol | ΔH° (1/TM versus log concentration) [1, 16]: −128.9 kcal/mol | ΔS° (1/TM versus log concentration) [1, 16]: −372.8 eu | Kd [2]: 2 nM | TM (average of the two methods) [3, 11]: 53.5 °C | TM (melting curve fit) [3, 12]: 53.6 °C | TM (1/TM versus log concentration) [3, 13]: 53.5 °C | ΔG°37 (average of the two methods) ([3]; average of the two methods): -13.1 kcal/mol | ΔH° (average of the two methods) ([3]; average of the two methods): -98.4 kcal/mol | ΔS° (average of the two methods) ([3]; average of the two methods): −275.1 eu | ΔG°3 (melting curve fit) [3, 14]: −12.7 | ΔS° (melting curve fit) [3, 14]: −253.9 eu | ΔH° (melting curve fit) [3, 15]: -91.5 kcal/mol | ΔG°37 (1/TM versus log concentration) [3, 16]: −13.4 kcal/mol | ΔH° (1/TM versus log concentration) [3, 16]: −105.3 kcal/mol | ΔS° (1/TM versus log concentration) [3, 16]: −296.2 eu | Melting temperature Tm, DNA:DNA [4]: 53.3 °C | Melting temperature Tm, DNA:RNA [5]: 50.6 °C

H-T2CT2CT4LysNH2 [PNA H-T2CT2CT4-LysNH2]
S1 nuclease digestion of pT9CT9C plasmid complexed with PNA [6]: very weak digestion | strand displacement binding (KMnO4 and DMS probing) [7]: Very little binding

H-T4CT2CT2LysNH2 [PNA H-T4CT2CT2LysNH2]
transcription arrest efficiency [8]: much less efficient

H-TTTCCTCTC-LysNH2 [PNA H-TTTCCTCTC-LysNH2]
melting temperature Tm [9]: 58.5 °C | melting temperature Tm [10]: 40.5 °C

— US6770738B1, “Higher order structure and binding of peptide nucleic acids” (ISIS Pharmaceuticals, Inc., priority 1992, dated 2004)
